The source of these data is patent US20030073132A1, “Method for the screening of alpha2delta-1 subunit binding ligands” (priority 1999, published 2003).

The structures appear in SMILES notation. “And” between values parts separate entries of the source, which are not always exact repeats. Equal entries are not always repeated. Where two headings read alike, the source gives them in different places.

Test [1] has as its target porcine α2δ-1b-6His (SEQ ID No 9) (Sus scrofa, UniProt A0A287BIN3). The note with it: [3H]gabapentin 10-13 nM.
Protocol: Assays were carried out at 21° C. in a final volume of 250 μl in 96-well NEN Ni chelate flash plates. Wells were set up for both ‘total’ and ‘non-specific’ binding. Specific binding was defined as that remaining after subtraction of the average of the ‘non-specific binding’ values from the average of the ‘total’ binding values. Assay components were added in the following order (all reagents were diluted in 10 mM HEPES (pH 7.4 at 21° C.)):
Immediately after adding radioligand, flash plates were loaded in the Packard Top Count scintillation counter to follow the binding time course. Incubation time before the assay was 3 hours. The ‘[^3H] flash plate’ programme (cpm) was used to monitor activity. Specific binding was ˜98% of the ‘total’ value. Imidazole was used in the assay to optimize the specific interaction of the protein's 6His tag with the Ni flashplate.
GraphPad Prism software was used to process competition curve data and determine IC50 and hill slope values. Twelve point competition curves with half log dilution steps of test compounds were used in the experiments.
The target of test [2] is [^3H]gabapentin site in porcine cortical membranes (Sus scrofa, UniProt O77773). The following applies: saturation binding analyses on porcine synaptic plasma cerebral cortex membranes in the presence of L-leucine; cited from earlier work.
Sequence of [^3H]gabapentin site in porcine cortical membranes (O77773 25-1091): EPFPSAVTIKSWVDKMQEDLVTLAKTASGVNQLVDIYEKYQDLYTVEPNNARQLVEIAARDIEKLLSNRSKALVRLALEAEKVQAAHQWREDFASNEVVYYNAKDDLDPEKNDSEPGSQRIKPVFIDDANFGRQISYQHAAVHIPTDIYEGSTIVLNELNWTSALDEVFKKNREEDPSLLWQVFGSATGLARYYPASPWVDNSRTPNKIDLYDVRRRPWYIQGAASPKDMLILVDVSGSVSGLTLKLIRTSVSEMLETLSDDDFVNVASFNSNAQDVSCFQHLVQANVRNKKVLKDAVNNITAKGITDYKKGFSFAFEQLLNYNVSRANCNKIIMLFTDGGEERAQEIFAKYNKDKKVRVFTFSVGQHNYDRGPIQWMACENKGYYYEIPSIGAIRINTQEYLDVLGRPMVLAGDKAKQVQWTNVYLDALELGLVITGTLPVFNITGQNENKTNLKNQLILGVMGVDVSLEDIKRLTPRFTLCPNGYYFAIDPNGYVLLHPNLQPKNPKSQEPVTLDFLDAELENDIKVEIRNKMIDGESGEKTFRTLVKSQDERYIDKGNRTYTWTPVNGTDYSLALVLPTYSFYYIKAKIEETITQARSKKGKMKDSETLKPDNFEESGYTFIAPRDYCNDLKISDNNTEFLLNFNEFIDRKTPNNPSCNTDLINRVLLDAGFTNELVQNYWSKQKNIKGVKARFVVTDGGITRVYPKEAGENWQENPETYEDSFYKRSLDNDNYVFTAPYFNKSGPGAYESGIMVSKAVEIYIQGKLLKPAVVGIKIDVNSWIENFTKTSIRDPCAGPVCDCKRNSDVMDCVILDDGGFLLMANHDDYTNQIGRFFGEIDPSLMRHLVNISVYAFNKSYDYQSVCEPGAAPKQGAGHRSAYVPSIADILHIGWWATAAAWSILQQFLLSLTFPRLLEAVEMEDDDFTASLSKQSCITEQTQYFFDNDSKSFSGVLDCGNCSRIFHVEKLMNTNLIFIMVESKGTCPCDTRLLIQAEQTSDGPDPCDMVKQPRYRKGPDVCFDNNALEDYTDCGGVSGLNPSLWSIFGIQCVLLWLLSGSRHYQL
[3] abbreviates: read-out: Ki, Flash plate (3 μl protein used, n = 2), single experiments, Ki = IC50/(1 + [L]/KD), 3 h incubation.
[4] abbreviates: read-out: Ki, Flash plate, Mean (geometric), geometric mean of n = 2.

Sequence of porcine α2δ-1b-6His (SEQ ID No 9) (A0A287BIN3 25-1109 limits assumed): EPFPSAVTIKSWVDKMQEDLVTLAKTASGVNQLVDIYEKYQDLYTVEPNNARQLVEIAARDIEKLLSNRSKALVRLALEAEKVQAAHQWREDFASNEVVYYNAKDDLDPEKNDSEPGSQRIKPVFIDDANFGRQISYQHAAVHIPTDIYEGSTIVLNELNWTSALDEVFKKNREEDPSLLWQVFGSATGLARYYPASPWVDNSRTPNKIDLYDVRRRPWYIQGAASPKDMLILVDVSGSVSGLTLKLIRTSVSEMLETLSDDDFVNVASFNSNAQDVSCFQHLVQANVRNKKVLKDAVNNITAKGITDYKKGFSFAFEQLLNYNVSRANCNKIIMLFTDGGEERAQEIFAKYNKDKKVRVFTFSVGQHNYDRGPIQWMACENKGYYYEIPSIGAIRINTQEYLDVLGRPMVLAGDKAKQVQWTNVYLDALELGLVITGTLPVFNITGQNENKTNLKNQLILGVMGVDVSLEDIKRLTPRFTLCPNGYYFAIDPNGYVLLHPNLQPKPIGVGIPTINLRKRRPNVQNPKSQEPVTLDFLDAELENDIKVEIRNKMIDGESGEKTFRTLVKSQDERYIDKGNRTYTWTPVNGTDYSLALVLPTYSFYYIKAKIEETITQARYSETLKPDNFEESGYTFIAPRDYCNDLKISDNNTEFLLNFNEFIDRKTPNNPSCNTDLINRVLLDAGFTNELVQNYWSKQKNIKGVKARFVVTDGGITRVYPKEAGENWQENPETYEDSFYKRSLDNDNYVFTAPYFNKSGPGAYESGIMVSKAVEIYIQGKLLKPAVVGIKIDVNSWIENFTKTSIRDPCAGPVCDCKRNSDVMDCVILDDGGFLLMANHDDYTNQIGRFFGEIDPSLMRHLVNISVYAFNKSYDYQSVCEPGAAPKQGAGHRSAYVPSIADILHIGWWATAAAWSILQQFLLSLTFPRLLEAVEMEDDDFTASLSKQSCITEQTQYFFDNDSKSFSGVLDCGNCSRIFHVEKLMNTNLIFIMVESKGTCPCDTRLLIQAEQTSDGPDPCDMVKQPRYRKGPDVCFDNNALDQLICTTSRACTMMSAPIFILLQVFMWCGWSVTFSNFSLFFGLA

`CC(C)C[C@@H](CN)CC(=O)O` [(R-)-3-isobtyl GABA, (R−)-3-Isobutyl GABA]: the Ki (in general, the dissociation constant of the complex between target and ligand, obtained from inhibition or displacement) was 157 nM and 207 nM in test [1] (setting [3]); 180 nM in test [1] (setting [4]).

On to `CC(C)C[C@H](CN)CC(=O)O` [(S+)-3-isobutyl GABA], for which the inhibition constant Ki is 10.9 nM and 7.58 nM in test [1] (setting [3]); 9.09 nM in test [1] (setting [4]).

Turning to `CC(C)C[C@H](N)C(=O)O` [L-Leucine], in test [2], the “interaction with the [3H]gabapentin binding site” value is “competitive interaction”.
